Laboratory results reported in patent publication US12077503B2, “Substituted cyclic amides and their use as herbicides” (FMC CORPORATION, priority 2015, dated 2024).

Tests used:
Assay type in all cases: in vivo
[1] = test system: sedge, umbrella (small-flower umbrella sedge, Cyperus difformis); test: Test B flooded paddy test; settings: Cyperus difformis, 250 g ai/ha, Flood; 0 to 100 scale where 0 is no effect and 100 is complete control; read-out: Sedge, Umbrella plant response rating
Summary of the method: (§1)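 Percent control, visually estimated after 13–15 d in the greenhouse on a 0–100 basis, compares treated pots with untreated ones; compound was put into paddy water 3 cm above the soil when plants had two leaves.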

[2] = test system: ducksalad (Heteranthera limosa); test: Test B flooded paddy test; settings: Heteranthera limosa, 250 g ai/ha, Flood; 0 to 100 scale where 0 is no effect and 100 is complete control; read-out: Ducksalad plant response rating
Summary of the method: as §1

[3] = test system: rice (Oryra sativa); test: Test B flooded paddy test; settings: Oryza sativa, 250 g ai/ha, Flood; 0 to 100 scale where 0 is no effect and 100 is complete control; read-out: Rice plant response rating
Summary of the method: as §1

[4] = test system: barnyardgrass (Echinochloa crus-galli); test: Test B flooded paddy test; settings: Echinochloa crus-galli, 250 g ai/ha, Flood; 0 to 100 scale where 0 is no effect and 100 is complete control; read-out: Barnyardgrass plant response rating
Summary of the method: as §1

[5] = test system: pigweed (Amaranthus retroflexus); test: Test A postemergence; settings: Amaranthus retroflexus, post-emergence, 240 h; for pest or weed control at 125 g/ha: 125 g ai/ha, postemergence, visual injury on 0 to 100 scale (0 no effect, 100 complete control), approx. 10 d, read-out: Pigweed plant response rating; for pest or weed control at 31 g/ha: Postemergence, 31 g ai/ha, visual injury after approx. 10 d, 0 to 100 scale, 0 no effect, 100 complete control, read-out: Plant response rating, Pigweed
Summary of the method: (§2)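 Visual injury scores from 0, no effect, to 100, complete control, were assigned versus untreated controls roughly 10 d after treatment in the greenhouse. Test chemicals, formulated with surfactant in a non-phytotoxic solvent, were applied to planted seeds as a preemergence soil spray or postemergence to one- to two-leaf plants 2 to 10 cm tall, in loam–sand soil.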

[6] = test system: Galium (catchweed bedstraw, Galium aparine); test: Test A postemergence; settings: Galium, post-emergence, 240 h; for pest or weed control at 125 g/ha: 125 g ai/ha, postemergence, visual injury on 0 to 100 scale (0 no effect, 100 complete control), approx. 10 d, read-out: Galium plant response rating; for pest or weed control at 31 g/ha: Postemergence, 31 g ai/ha, visual injury after approx. 10 d, 0 to 100 scale, 0 no effect, 100 complete control, read-out: Plant response rating, Galium
Summary of the method: as §2

[7] = test system: blackgrass (Alopecurus myosuroides); test: Test A postemergence; settings: Alopecurus myosuroides, post-emergence, 240 h; for pest or weed control at 125 g/ha: 125 g ai/ha, postemergence, visual injury on 0 to 100 scale (0 no effect, 100 complete control), approx. 10 d, read-out: Blackgrass plant response rating; for pest or weed control at 31 g/ha: Postemergence, 31 g ai/ha, visual injury after approx. 10 d, 0 to 100 scale, 0 no effect, 100 complete control, read-out: Plant response rating, Blackgrass
Summary of the method: as §2

[8] = test system: ragweed (common ragweed, Ambrosia elatior); test: Test A postemergence; settings: Ambrosia artemisiifolia, post-emergence, 240 h; for pest or weed control at 125 g/ha: 125 g ai/ha, postemergence, visual injury on 0 to 100 scale (0 no effect, 100 complete control), approx. 10 d, read-out: Ragweed plant response rating; for pest or weed control at 31 g/ha: Postemergence, 31 g ai/ha, visual injury after approx. 10 d, 0 to 100 scale, 0 no effect, 100 complete control, read-out: Plant response rating, Ragweed
Summary of the method: as §2

[9] = test system: Kochia (Kochia scoparia); test: Test A postemergence; settings: Bassia scoparia, post-emergence, 240 h; for pest or weed control at 125 g/ha: 125 g ai/ha, postemergence, visual injury on 0 to 100 scale (0 no effect, 100 complete control), approx. 10 d, read-out: Kochia plant response rating; for pest or weed control at 31 g/ha: Postemergence, 31 g ai/ha, visual injury after approx. 10 d, 0 to 100 scale, 0 no effect, 100 complete control, read-out: Plant response rating, Kochia
Summary of the method: as §2

[10] = test system: giant foxtail (Setaria faberii); test: Test A postemergence; settings: Setaria faberi, post-emergence, 240 h; for pest or weed control at 125 g/ha: 125 g ai/ha, postemergence, visual injury on 0 to 100 scale (0 no effect, 100 complete control), approx. 10 d, read-out: Foxtail, Giant plant response rating; for pest or weed control at 31 g/ha: Postemergence, 31 g ai/ha, visual injury after approx. 10 d, 0 to 100 scale, 0 no effect, 100 complete control, read-out: Plant response rating, Foxtail, Giant
Summary of the method: as §2

[11] = test system: wheat (Triticum aestivum); test: Test A postemergence; settings: Triticum aestivum, post-emergence, 240 h; for plant injury at 125 g/ha: 125 g ai/ha, postemergence, visual injury on 0 to 100 scale (0 no effect, 100 complete control), approx. 10 d, read-out: Wheat plant response rating; for plant injury at 31 g/ha: Postemergence, 31 g ai/ha, visual injury after approx. 10 d, 0 to 100 scale, 0 no effect, 100 complete control, read-out: Plant response rating, Wheat
Summary of the method: as §2

[12] = test system: corn (Zea mays); test: Test A postemergence; settings: Zea mays, post-emergence, 240 h; for plant injury at 125 g/ha: 125 g ai/ha, postemergence, visual injury on 0 to 100 scale (0 no effect, 100 complete control), approx. 10 d, read-out: Corn plant response rating; for Corn plant response rating (crop injury, 0 = no effect, 100 = complete kill) at 31 g/ha: Postemergence, 31 g ai/ha, visual injury after approx. 10 d, 0 to 100 scale, 100 complete control
Summary of the method: as §2

[13] = test system: barnyardgrass (Echinochloa crus-galli); test: Test A postemergence; settings: Echinochloa crus-galli, post-emergence, 240 h; for pest or weed control at 125 g/ha: 125 g ai/ha, postemergence, visual injury on 0 to 100 scale (0 no effect, 100 complete control), approx. 10 d, read-out: Barnyardgrass plant response rating; for pest or weed control at 31 g/ha: Postemergence, 31 g ai/ha, visual injury after approx. 10 d, 0 to 100 scale, 0 no effect, 100 complete control, read-out: Plant response rating, Barnyardgrass
Summary of the method: as §2

[14] = test system: ryegrass, Italian (Italian ryegrass, Lolium multiflorum); test: Test A postemergence; settings: Lolium multiflorum, post-emergence, 240 h; for pest or weed control at 125 g/ha: 125 g ai/ha, postemergence, visual injury on 0 to 100 scale (0 no effect, 100 complete control), approx. 10 d, read-out: Ryegrass, Italian plant response rating; for pest or weed control at 31 g/ha: Postemergence, 31 g ai/ha, visual injury after approx. 10 d, 0 to 100 scale, 0 no effect, 100 complete control, read-out: Plant response rating, Ryegrass, Italian
Summary of the method: as §2

[15] = test system: pigweed (Amaranthus retroflexus); test: Test A preemergence; settings: Amaranthus retroflexus, pre-emergence, 240 h, 0 to 100 scale where 0 is no effect and 100 is complete control, read-out: Pigweed plant response rating; for pest or weed control at 31 g/ha: 31 g ai/ha, Preemergence; for pest or weed control at 125 g/ha: 125 g ai/ha, preemergence, approx. 10 d
[16] = test system: ragweed (common ragweed, Ambrosia elatior); test: Test A preemergence; settings: Ambrosia artemisiifolia, pre-emergence, 240 h, 0 to 100 scale where 0 is no effect and 100 is complete control, read-out: Ragweed plant response rating; for pest or weed control at 31 g/ha: 31 g ai/ha, Preemergence; for pest or weed control at 125 g/ha: 125 g ai/ha, preemergence, approx. 10 d
Summary of the method: as §2

[17] = test system: Kochia (Kochia scoparia); test: Test A preemergence; settings: Bassia scoparia, pre-emergence, 240 h, 0 to 100 scale where 0 is no effect and 100 is complete control, read-out: Kochia plant response rating; for pest or weed control at 31 g/ha: 31 g ai/ha, Preemergence; for pest or weed control at 125 g/ha: 125 g ai/ha, preemergence, approx. 10 d
Summary of the method: as §2

[18] = test system: giant foxtail (Setaria faberii); test: Test A preemergence; settings: Setaria faberi, pre-emergence, 240 h, 0 to 100 scale where 0 is no effect and 100 is complete control, read-out: Foxtail, Giant plant response rating; for pest or weed control at 31 g/ha: 31 g ai/ha, Preemergence; for pest or weed control at 125 g/ha: 125 g ai/ha, preemergence, approx. 10 d
Summary of the method: as §2

[19] = test system: barnyardgrass (Echinochloa crus-galli); test: Test A preemergence; settings: Echinochloa crus-galli, pre-emergence, 240 h, 0 to 100 scale where 0 is no effect and 100 is complete control, read-out: Barnyardgrass plant response rating; for pest or weed control at 31 g/ha: 31 g ai/ha, Preemergence; for pest or weed control at 125 g/ha: 125 g ai/ha, preemergence, approx. 10 d
Summary of the method: as §2

[20] = test system: ryegrass, Italian (Italian ryegrass, Lolium multiflorum); test: Test A preemergence; settings: Lolium multiflorum, pre-emergence, 240 h, 0 to 100 scale where 0 is no effect and 100 is complete control, read-out: Ryegrass, Italian plant response rating; for pest or weed control at 31 g/ha: 31 g ai/ha, Preemergence; for pest or weed control at 125 g/ha: 125 g ai/ha, preemergence, approx. 10 d
Summary of the method: as §2

| Structure (SMILES) | pest or weed control at 250 g/ha [1] [%] | pest or weed control at 250 g/ha [2] [%] | pest or weed control at 250 g/ha [3] [%] | pest or weed control at 250 g/ha [4] [%] | pest or weed control at 125 g/ha [5] [%] | pest or weed control at 31 g/ha [5] [%] | pest or weed control at 125 g/ha [6] [%] | pest or weed control at 31 g/ha [6] [%] | pest or weed control at 125 g/ha [7] [%] | pest or weed control at 31 g/ha [7] [%] | pest or weed control at 125 g/ha [8] [%] | pest or weed control at 31 g/ha [8] [%] | pest or weed control at 125 g/ha [9] [%] | pest or weed control at 31 g/ha [9] [%] | pest or weed control at 125 g/ha [10] [%] | pest or weed control at 31 g/ha [10] [%] | plant injury at 125 g/ha [11] [%] | plant injury at 31 g/ha [11] [%] | plant injury at 125 g/ha [12] [%] | Corn plant response rating (crop injury, 0 = no effect, 100 = complete kill) at 31 g/ha [12] [%] | further results |
| --- | --- | --- | --- | --- | --- | --- | --- | --- | --- | --- | --- | --- | --- | --- | --- | --- | --- | --- | --- | --- | --- |
| CN1C[C@H](c2csc3c2CCCC3)[C@@H](C(=O)Nc2ccc(F)c(F)c2F)C1=O [Compound 1079] | 0 | 30 | 20 | 60 | 0 | 0 | 0 | 0 | 0 | 0 | 0 | 0 | 20 | 0 | 20 | 0 | 30 | 0 | 0 | 0 | pest or weed control at 125 g/ha [13]: 90%; pest or weed control at 31 g/ha [13]: 20%; pest or weed control at 125 g/ha [14]: 0%; pest or weed control at 31 g/ha [14]: 0%; pest or weed control at 31 g/ha [15]: 0%; pest or weed control at 125 g/ha [15]: 0%; pest or weed control at 31 g/ha [16]: 0%; pest or weed control at 125 g/ha [16]: 0%; pest or weed control at 31 g/ha [17]: 0%; pest or weed control at 125 g/ha [17]: 0%; pest or weed control at 31 g/ha [18]: 20%; pest or weed control at 125 g/ha [18]: 100%; pest or weed control at 31 g/ha [19]: 0%; pest or weed control at 125 g/ha [19]: 80%; pest or weed control at 31 g/ha [20]: 0%; pest or weed control at 125 g/ha [20]: 0% |
| CN1C[C@H](c2csc3c2CCC3)[C@@H](C(=O)Nc2ccc(F)c(F)c2F)C1=O [Compound 1081] | 0 | 80 | 40 | 90 | 0 | 0 | 20 | 0 | 0 | 0 | 0 | 0 | 0 | 0 | 80 | 10 | 20 | 0 | 20 | 0 | pest or weed control at 125 g/ha [13]: 90%; pest or weed control at 31 g/ha [13]: 30%; pest or weed control at 125 g/ha [14]: 0%; pest or weed control at 31 g/ha [14]: 0%; pest or weed control at 31 g/ha [15]: 0%; pest or weed control at 125 g/ha [15]: 0%; pest or weed control at 31 g/ha [16]: 0%; pest or weed control at 125 g/ha [16]: 0%; pest or weed control at 31 g/ha [17]: 20%; pest or weed control at 125 g/ha [17]: 30%; pest or weed control at 31 g/ha [18]: 100%; pest or weed control at 125 g/ha [18]: 100%; pest or weed control at 31 g/ha [19]: 10%; pest or weed control at 125 g/ha [19]: 90%; pest or weed control at 31 g/ha [20]: 0%; pest or weed control at 125 g/ha [20]: 0% |
